From patent US12637428B2, “Isoquinoline derivatives as SIK2 inhibitors” (Cancer Research Technology Limited, priority 2019, dated 2026)

Tests used:
Format in all cases: biochemical
Src = target: T1, Src (Homo sapiens, UniProt P12931); assay: Src kinase assay, IMAP fluorescence polarization; conditions: 50 or 100 μM ATP, average
T1 construct: purchased Life Technologies
In short: (§1)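 Dose-response over 0.00005-1 μM compound in 20 mM Tris pH 7.2 containing 4 mM MgCl2, 0.2% BSA and 2 mM DTT, with 50 or 100 μM ATP and 100 nM FAM-labelled peptide. Kinase 0.6-13 nM, 60 min at room temperature; IMAP FP readout, inhibition normalized to no-inhibitor and no-enzyme controls.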

EPHA2 = target: T2, EPHA2 (Homo sapiens, UniProt P29317); assay: EPHA2 kinase assay, IMAP fluorescence polarization; conditions: 50 or 100 μM ATP, Tris pH 8.5, average
T2 construct: purchased Life Technologies
T2 sequence (P29317 24-976): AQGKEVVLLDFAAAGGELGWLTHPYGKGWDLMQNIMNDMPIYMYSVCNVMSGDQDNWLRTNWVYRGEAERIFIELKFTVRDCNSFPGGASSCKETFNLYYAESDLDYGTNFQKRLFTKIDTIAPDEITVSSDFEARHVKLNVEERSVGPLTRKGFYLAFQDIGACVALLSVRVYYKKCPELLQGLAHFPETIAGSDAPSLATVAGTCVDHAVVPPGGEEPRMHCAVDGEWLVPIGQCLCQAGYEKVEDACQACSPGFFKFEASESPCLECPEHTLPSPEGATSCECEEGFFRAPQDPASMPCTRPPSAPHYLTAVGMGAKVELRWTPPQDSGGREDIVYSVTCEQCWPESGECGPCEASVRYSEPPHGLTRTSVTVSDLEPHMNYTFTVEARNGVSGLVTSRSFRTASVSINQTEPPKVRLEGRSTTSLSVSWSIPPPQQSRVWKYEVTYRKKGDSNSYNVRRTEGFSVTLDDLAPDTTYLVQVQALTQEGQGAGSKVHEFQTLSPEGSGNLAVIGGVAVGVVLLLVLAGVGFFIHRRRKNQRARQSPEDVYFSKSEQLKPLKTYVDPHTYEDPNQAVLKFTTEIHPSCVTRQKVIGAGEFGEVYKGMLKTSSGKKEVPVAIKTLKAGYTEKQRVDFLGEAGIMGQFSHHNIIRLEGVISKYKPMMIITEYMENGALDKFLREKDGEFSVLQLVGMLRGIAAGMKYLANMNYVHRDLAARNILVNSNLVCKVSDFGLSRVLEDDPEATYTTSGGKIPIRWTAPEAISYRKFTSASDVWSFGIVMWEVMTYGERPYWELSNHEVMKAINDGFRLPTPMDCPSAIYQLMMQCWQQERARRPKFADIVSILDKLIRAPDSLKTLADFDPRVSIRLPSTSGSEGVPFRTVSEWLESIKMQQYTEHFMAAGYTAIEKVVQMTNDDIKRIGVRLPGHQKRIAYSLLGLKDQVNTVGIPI

Abl = target: T3, Abl (Homo sapiens, UniProt P00519); assay: Abl kinase assay, IMAP fluorescence polarization; conditions: 50 or 100 μM ATP, average
T3 construct: purchased Life Technologies
T3 sequence (P00519 whole entry): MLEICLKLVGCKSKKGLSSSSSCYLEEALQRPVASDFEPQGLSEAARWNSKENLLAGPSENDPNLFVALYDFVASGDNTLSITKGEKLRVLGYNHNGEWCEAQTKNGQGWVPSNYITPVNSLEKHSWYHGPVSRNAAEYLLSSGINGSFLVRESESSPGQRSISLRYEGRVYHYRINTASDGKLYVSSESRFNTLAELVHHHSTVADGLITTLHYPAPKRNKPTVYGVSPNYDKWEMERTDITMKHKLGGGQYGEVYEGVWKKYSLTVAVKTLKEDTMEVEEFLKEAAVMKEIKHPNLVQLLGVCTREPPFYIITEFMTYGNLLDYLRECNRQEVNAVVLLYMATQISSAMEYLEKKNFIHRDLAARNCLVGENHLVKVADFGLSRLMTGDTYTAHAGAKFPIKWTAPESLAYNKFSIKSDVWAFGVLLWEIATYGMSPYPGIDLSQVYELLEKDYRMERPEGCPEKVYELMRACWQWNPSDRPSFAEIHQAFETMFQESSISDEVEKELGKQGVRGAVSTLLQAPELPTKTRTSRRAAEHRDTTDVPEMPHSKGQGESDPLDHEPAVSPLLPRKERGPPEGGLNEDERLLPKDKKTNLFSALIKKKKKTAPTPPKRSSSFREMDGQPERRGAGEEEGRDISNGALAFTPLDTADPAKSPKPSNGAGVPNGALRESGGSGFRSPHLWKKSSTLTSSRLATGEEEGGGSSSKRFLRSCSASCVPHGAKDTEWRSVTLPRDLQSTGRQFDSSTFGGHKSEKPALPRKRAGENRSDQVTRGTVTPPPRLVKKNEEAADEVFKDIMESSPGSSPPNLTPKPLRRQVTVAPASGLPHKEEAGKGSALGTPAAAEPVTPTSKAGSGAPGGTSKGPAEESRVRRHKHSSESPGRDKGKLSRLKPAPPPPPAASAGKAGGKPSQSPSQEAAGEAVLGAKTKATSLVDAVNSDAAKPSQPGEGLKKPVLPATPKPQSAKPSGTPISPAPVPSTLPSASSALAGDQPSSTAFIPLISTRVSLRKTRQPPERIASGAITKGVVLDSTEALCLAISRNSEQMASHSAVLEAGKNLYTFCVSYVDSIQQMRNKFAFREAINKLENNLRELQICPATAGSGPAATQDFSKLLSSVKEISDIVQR
In short: as §1

SIK3 = target: T4, SIK3 (Homo sapiens, UniProt Q9Y2K2); assay: SIK3 kinase assay, IMAP fluorescence polarization; conditions: 50 or 100 μM ATP, average
T4 construct: purchased Life Technologies
In short: as §1

SIK1 = target: T5, SIK1 (Homo sapiens, UniProt P57059); assay: SIK1 kinase assay, IMAP fluorescence polarization; conditions: 50 or 100 μM ATP, average
T5 construct: purchased Life Technologies
T5 sequence (P57059 whole entry): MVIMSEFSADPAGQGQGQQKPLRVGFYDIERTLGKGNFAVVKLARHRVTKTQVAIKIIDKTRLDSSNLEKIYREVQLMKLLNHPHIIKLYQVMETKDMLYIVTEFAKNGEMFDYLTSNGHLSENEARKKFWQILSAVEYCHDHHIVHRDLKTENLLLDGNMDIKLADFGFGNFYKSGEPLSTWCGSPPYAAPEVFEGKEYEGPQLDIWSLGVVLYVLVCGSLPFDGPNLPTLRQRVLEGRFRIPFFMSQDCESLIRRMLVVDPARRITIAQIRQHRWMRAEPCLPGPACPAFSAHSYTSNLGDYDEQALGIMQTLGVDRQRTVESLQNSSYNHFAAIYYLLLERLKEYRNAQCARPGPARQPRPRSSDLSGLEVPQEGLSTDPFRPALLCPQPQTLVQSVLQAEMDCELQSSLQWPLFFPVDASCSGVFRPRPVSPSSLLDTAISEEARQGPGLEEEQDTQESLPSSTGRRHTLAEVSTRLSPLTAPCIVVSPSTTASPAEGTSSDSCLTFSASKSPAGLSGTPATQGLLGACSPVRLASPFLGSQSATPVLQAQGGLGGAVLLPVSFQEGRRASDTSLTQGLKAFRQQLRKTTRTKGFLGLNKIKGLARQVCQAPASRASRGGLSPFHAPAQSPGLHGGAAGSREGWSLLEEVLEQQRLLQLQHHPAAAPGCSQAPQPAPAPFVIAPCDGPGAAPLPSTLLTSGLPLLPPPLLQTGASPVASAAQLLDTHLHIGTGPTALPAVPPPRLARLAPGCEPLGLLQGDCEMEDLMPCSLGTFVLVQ
In short: as §1

SIK2 = target: T6, SIK2 (Homo sapiens, UniProt Q9H0K1); assay: SIK2 kinase assay, IMAP fluorescence polarization; conditions: 50 or 100 μM ATP, average
T6 construct: purchased Life Technologies
T6 sequence (Q9H0K1 whole entry): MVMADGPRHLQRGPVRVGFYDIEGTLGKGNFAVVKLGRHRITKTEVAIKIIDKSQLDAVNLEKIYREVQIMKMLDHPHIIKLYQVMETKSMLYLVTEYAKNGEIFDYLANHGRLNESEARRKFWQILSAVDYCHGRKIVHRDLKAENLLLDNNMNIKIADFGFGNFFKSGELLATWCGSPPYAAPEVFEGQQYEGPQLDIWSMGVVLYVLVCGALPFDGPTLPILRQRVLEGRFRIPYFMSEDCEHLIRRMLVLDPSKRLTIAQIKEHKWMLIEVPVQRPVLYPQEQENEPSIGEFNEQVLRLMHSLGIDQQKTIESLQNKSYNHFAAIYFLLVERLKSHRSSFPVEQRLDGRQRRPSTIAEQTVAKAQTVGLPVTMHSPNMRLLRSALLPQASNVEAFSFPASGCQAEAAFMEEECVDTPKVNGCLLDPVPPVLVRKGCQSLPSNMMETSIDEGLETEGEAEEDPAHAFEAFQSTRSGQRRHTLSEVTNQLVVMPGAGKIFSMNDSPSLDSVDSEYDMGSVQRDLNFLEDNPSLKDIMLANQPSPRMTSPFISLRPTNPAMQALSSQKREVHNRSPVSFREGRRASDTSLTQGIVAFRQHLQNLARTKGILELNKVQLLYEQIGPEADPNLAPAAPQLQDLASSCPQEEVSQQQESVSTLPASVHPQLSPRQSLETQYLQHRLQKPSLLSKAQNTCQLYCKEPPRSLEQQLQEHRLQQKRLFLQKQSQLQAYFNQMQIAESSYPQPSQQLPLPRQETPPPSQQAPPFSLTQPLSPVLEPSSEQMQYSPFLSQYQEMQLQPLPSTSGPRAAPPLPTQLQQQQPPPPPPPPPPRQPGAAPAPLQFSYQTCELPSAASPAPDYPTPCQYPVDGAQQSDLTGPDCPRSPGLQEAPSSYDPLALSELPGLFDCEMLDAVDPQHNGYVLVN
In short: as §1

T1 sequence (P12931 whole entry): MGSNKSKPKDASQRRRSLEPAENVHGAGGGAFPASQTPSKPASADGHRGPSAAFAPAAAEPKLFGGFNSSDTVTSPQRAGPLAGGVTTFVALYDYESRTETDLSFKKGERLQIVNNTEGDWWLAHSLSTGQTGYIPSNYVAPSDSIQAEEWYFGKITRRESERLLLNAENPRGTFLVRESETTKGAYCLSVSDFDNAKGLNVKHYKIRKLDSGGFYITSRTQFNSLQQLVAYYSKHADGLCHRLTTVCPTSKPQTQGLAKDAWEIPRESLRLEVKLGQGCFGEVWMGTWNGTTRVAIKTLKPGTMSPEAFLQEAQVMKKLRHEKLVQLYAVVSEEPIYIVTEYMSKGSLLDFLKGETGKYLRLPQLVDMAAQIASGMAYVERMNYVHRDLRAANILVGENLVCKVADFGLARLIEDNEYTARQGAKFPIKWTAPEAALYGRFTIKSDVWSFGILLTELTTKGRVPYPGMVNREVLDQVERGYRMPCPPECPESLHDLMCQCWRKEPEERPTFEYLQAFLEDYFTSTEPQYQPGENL

CN[C@H]1CCN(c2cc(-c3c(C)cccc3F)cc3cnc(N)cc23)C1 [Example 16, 7-(2-fluoro-6-methyl-phenyl)-5-[(3S)-3-(methylamino)pyrrolidin-1-yl]isoquinolin-3-amine]
Ki (Src): 924 nM
Ki (EPHA2): 278 nM
Ki (Abl): 41.6 nM
Ki (SIK3): 4.7 nM
Ki (SIK1): 2 nM
Ki (SIK2): 0.224 nM

Cc1cccc(F)c1-c1cc(NC2CCNCC2)c2cc(N)ncc2c1F [Example 120, 8-Fluoro-7-(2-fluoro-6-methyl-phenyl)-N5-(4-piperidyl)isoquinoline-3,5-diamine]
Ki (Src): > 1000 nM
Ki (EPHA2): > 1000 nM
Ki (Abl): > 1000 nM
Ki (SIK3): 22.1 nM
Ki (SIK1): 3.55 nM
Ki (SIK2): 2.43 nM

Cc1cccc(F)c1-c1cc(NC[C@H]2CCCN2)c2cc(N)ncc2c1 [Example 12, 7-(2-fluoro-6-methyl-phenyl)-N5-[[(2R)-pyrrolidin-2-yl]methyl]isoquinoline-3,5-diamine]
Ki (Src): 167 nM
Ki (EPHA2): 216 nM
Ki (Abl): 22.9 nM
Ki (SIK3): 3.1 nM
Ki (SIK1): 1.07 nM
Ki (SIK2): 0.329 nM

Cc1cccc(F)c1-c1cc(NC2CCNCC2)c2c(C#N)c(N)ncc2c1 [Example 133, 3-Amino-7-(2-fluoro-6-methyl-phenyl)-5-(4-piperidylamino)isoquinoline-4-carbonitrile]
Ki (Src): 6.32 nM
Ki (EPHA2): 34.8 nM
Ki (Abl): 1.13 nM
Ki (SIK3): 0.271 nM
Ki (SIK1): 0.348 nM
Ki (SIK2): 0.0609 nM

Cc1cccc(Cl)c1-c1cc(NC2CN(C)C2)c2cc(N)ncc2c1 [Example 63, 7-(2-chloro-6-methyl-phenyl)-N5-(1-methylazetidin-3-yl)isoquinoline-3,5-diamine]
Ki (Src): 151 nM
Ki (EPHA2): 220 nM
Ki (Abl): 104 nM
Ki (SIK3): 10.1 nM
Ki (SIK1): 2.01 nM
Ki (SIK2): 0.998 nM

Cc1cccc(F)c1-c1cc(NCC2CNC2)c2cc(N)ncc2c1 [Example 11, N5-(azetidin-3-ylmethyl)-7-(2-fluoro-6-methyl-phenyl)isoquinoline-3,5-diamine]
Ki (Src): 23.5 nM
Ki (EPHA2): 95.1 nM
Ki (Abl): 0.921 nM
Ki (SIK3): 0.195 nM
Ki (SIK1): 0.417 nM
Ki (SIK2): 0.0672 nM

Cc1cccc(F)c1-c1cc(NC[C@@H]2CCCCN2)c2cc(N)ncc2c1 [Example 14, 7-(2-fluoro-6-methyl-phenyl)-N5-[[(2S)-2-piperidyl]methyl]isoquinoline-3,5-diamine]
Ki (Src): 67.8 nM
Ki (EPHA2): 59.5 nM
Ki (Abl): 8.01 nM
Ki (SIK3): 2.43 nM
Ki (SIK1): 0.601 nM
Ki (SIK2): 0.0969 nM

Cc1cccc(F)c1-c1cc(NC[C@H]2CCNC2)c2cc(N)ncc2c1 [Example 9, 7-(2-fluoro-6-methyl-phenyl)-N5-[[(3S)-pyrrolidin-3-yl]methyl]isoquinoline-3,5-diamine]
Ki (Src): 217 nM
Ki (EPHA2): 166 nM
Ki (Abl): 0.687 nM
Ki (SIK3): 0.269 nM
Ki (SIK1): 0.316 nM
Ki (SIK2): 0.0411 nM

Cc1cccc(F)c1-c1cc(N2CCC[C@@H](O)C2)c2cc(N)ncc2c1 [Example 108, (3R)-1-[3-amino-7-(2-fluoro-6-methyl-phenyl)-5-isoquinolyl]piperidin-3-ol]
Ki (Src): 1880 nM
Ki (EPHA2): 2290 nM
Ki (Abl): 101 nM
Ki (SIK3): 130 nM
Ki (SIK1): 29.7 nM
Ki (SIK2): 2.39 nM

Cc1cccc(Cl)c1-c1cc(NC2CNC2)c2cc(N)ncc2c1 [Example 31, N5-(azetidin-3-yl)-7-(2-chloro-6-methyl-phenyl)isoquinoline-3,5-diamine]
Ki (Src): 315 nM
Ki (EPHA2): > 1000 nM
Ki (Abl): 182 nM
Ki (SIK3): 9.52 nM
Ki (SIK1): 2.6 nM
Ki (SIK2): 0.968 nM

Cc1cccc(F)c1-c1cc(NC2CCN(C)CC2)c2ccncc2c1 [Example 103, 7-(2-Fluoro-6-methyl-phenyl)-N-(1-methyl-4-piperidyl)isoquinolin-5-amine]
Ki (Src): 143 nM
Ki (EPHA2): 189 nM
Ki (Abl): 97.2 nM
Ki (SIK3): 5.01 nM
Ki (SIK1): 2.21 nM
Ki (SIK2): 0.296 nM

Cc1cccc(F)c1-c1cc(NC2CCN(C)CC2)c2ncncc2c1 [Example 125, 6-(2-Fluoro-6-methyl-phenyl)-N-(1-methyl-4-piperidyl)quinazolin-8-amine]
Ki (Src): > 1000 nM
Ki (EPHA2): 244 nM
Ki (Abl): > 1000 nM
Ki (SIK3): 5 nM
Ki (SIK1): 2.99 nM
Ki (SIK2): 1.37 nM

Cc1cccc(F)c1-c1cc(NC[C@H]2CCCNC2)c2cc(N)ncc2c1 [Example 2, 7-(2-fluoro-6-methyl-phenyl)-N5-[[(3S)-3-piperidyl]methyl]isoquinoline-3,5-diamine]
Ki (Src): 157 nM
Ki (EPHA2): 64.6 nM
Ki (Abl): 11.1 nM
Ki (SIK3): 1.37 nM
Ki (SIK1): 0.524 nM
Ki (SIK2): 0.18 nM

Cc1cccc(F)c1-c1cc(NC2CN(C)C2)c2ccncc2c1 [Example 65, 7-(2-Fluoro-6-methyl-phenyl)-N-(1-methylazetidin-3-yl)isoquinolin-5-amine]
Ki (Src): 285 nM
Ki (EPHA2): 264 nM
Ki (Abl): 35.9 nM
Ki (SIK3): 4.57 nM
Ki (SIK1): 3.73 nM
Ki (SIK2): 0.716 nM

CC(=O)Nc1cc2c(NC3CCN(C)CC3)cc(-c3c(C)cccc3F)cc2cn1 [Example 115, N-[7-(2-Fluoro-6-methyl-phenyl)-5-[(1-methyl-4-piperidyl)amino]-3-isoquinolyl]acetamide]
Ki (Src): 0.974 nM
Ki (EPHA2): 1.08 nM
Ki (Abl): 0.243 nM
Ki (SIK3): 0.301 nM
Ki (SIK1): 0.183 nM
Ki (SIK2): 0.0274 nM

CCN1CCC(Nc2cc(-c3c(C)cccc3F)cc3cncnc23)CC1 [Example 126, N-(1-Ethyl-4-piperidyl)-6-(2-fluoro-6-methyl-phenyl)quinazolin-8-amine]
Ki (Src): 539 nM
Ki (EPHA2): 302 nM
Ki (Abl): 92.7 nM
Ki (SIK3): 6.35 nM
Ki (SIK1): 2.95 nM
Ki (SIK2): 3.01 nM

Cc1cccc(F)c1-c1cc(N2CC(N(C)C)C2)c2cc(N)ncc2c1 [Example 79, 5-[3-(dimethylamino)azetidin-1-yl]-7-(2-fluoro-6-methyl-phenyl)isoquinolin-3-amine]
Ki (Src): 106 nM
Ki (EPHA2): 84.1 nM
Ki (Abl): 12.7 nM
Ki (SIK3): 2.24 nM
Ki (SIK1): 0.747 nM
Ki (SIK2): 0.101 nM

CN[C@@H]1CCCN(c2cc(-c3c(C)cccc3F)cc3cnc(N)cc23)C1 [Example 19, 7-(2-fluoro-6-methyl-phenyl)-5-[(3R)-3-(methylamino)-1-piperidyl]isoquinolin-3-amine]
Ki (Src): 306 nM
Ki (EPHA2): > 1000 nM
Ki (Abl): 24.6 nM
Ki (SIK3): 4.45 nM
Ki (SIK1): 0.476 nM
Ki (SIK2): 0.113 nM

Cc1cccc(Cl)c1-c1cc(NC2CCN(C)CC2)c2ccncc2c1 [Example 66, 7-(2-chloro-6-methyl-phenyl)-N-(1-methyl-4-piperidyl)isoquinolin-5-amine]
Ki (Src): 105 nM
Ki (EPHA2): 54.9 nM
Ki (Abl): 58.7 nM
Ki (SIK3): 1.15 nM
Ki (SIK1): 0.528 nM
Ki (SIK2): 0.646 nM

Cc1cccc(F)c1-c1cc(N[C@@H]2CCCN(C)C2)c2cc(N)ncc2c1 [Example 85, 7-(2-fluoro-6-methyl-phenyl)-N5-[(3R)-1-methyl-3-piperidyl]isoquinoline-3,5-diamine]
Ki (Src): 40.2 nM
Ki (EPHA2): 258 nM
Ki (Abl): 7.38 nM
Ki (SIK3): 1.62 nM
Ki (SIK1): 0.611 nM
Ki (SIK2): 0.0911 nM

Cc1cccc(Cl)c1-c1cc(NC2CCNCC2)c2ncncc2c1 [Example 138, 6-(2-chloro-6-methyl-phenyl)-N-(4-piperidyl)quinazolin-8-amine]
Ki (Src): 333 nM
Ki (EPHA2): 93.4 nM
Ki (Abl): 545 nM
Ki (SIK3): 15.7 nM
Ki (SIK1): 3.7 nM
Ki (SIK2): 3.12 nM

CCN1CCC(Nc2cc(-c3c(C)cccc3Cl)cc3cnc(N)nc23)CC1 [Example 128, 6-(2-chloro-6-methyl-phenyl)-N8-(1-ethyl-4-piperidyl)quinazoline-2,8-diamine]
Ki (Src): 27.4 nM
Ki (EPHA2): 20 nM
Ki (Abl): 26.4 nM
Ki (SIK3): 1.46 nM
Ki (SIK1): 0.409 nM
Ki (SIK2): 0.184 nM

Cc1cccc(F)c1-c1cc(C2CCN(C)CC2)c2cc(N)ncc2c1 [Example 117, 7-(2-Fluoro-6-methyl-phenyl)-5-(1-methyl-4-piperidyl)isoquinolin-3-amine]
Ki (Src): > 1000 nM
Ki (EPHA2): > 1000 nM
Ki (Abl): 12.3 nM
Ki (SIK3): 0.473 nM
Ki (SIK1): 0.678 nM
Ki (SIK2): 0.0546 nM

Cc1cccc(F)c1-c1cc(NC2CCN(C)CC2)c2cc(N)ncc2c1F [Example 119, 8-fluoro-7-(2-fluoro-6-methyl-phenyl)-N5-(1-methyl-4-piperidyl)isoquinoline-3,5-diamine]
Ki (Src): > 1000 nM
Ki (EPHA2): > 1000 nM
Ki (Abl): > 1000 nM
Ki (SIK3): 25 nM
Ki (SIK1): 4.3 nM
Ki (SIK2): 3.11 nM

Cc1cccc(F)c1-c1cc(N2CC[C@H](N(C)C)C2)c2cc(N)ncc2c1 [Example 59, 5-[(3S)-3-(dimethylamino)pyrrolidin-1-yl]-7-(2-fluoro-6-methyl-phenyl)isoquinolin-3-amine]
Ki (Src): 2170 nM
Ki (EPHA2): > 1000 nM
Ki (Abl): 211 nM
Ki (SIK3): 27.4 nM
Ki (SIK1): 15.3 nM
Ki (SIK2): 2.87 nM

Cc1cccc(F)c1-c1cc(OC2CNC2)c2cc(N)ncc2c1 [Example 47, 5-(azetidin-3-yloxy)-7-(2-fluoro-6-methyl-phenyl)isoquinolin-3-amine]
Ki (Src): 731 nM
Ki (EPHA2): 1080 nM
Ki (Abl): 13.5 nM
Ki (SIK3): 2.07 nM
Ki (SIK1): 1.01 nM
Ki (SIK2): 0.168 nM

Cc1cccc(F)c1-c1cc(NC2CCNCC2)c2nc(N)ncc2c1 [Example 124, 6-(2-fluoro-6-methyl-phenyl)-N8-(4-piperidyl)quinazoline-2,8-diamine]
Ki (Src): 17.1 nM
Ki (EPHA2): 48.6 nM
Ki (Abl): 6.13 nM
Ki (SIK3): 0.354 nM
Ki (SIK1): 0.338 nM
Ki (SIK2): 0.0472 nM
